From ChEMBL document CHEMBL4414544, “Dihydropyrimidine-2-thiones as Eg5 inhibitors and L-type calcium channel blockers: potential antitumour dual agents” (Medchemcomm, 2019)
pIC50: −log10 of the molar value. The source made the active and inactive calls. The rule behind the calls is not given here.

Tests used:
[1] = test system: HCT-116; assay: Antiproliferative activity against human HCT116 cells incubated for 72 hrs by MTT assay; format: functional, cell-based; settings: HCT-116, 72 h
[2] = test system: MCF7; assay: Antiproliferative activity against human MCF7 cells incubated for 72 hrs by MTT assay; format: functional, cell-based; settings: MCF7, 72 h
[3] = test system: MM1.S; assay: Antiproliferative activity against human MM1S cells incubated for 72 hrs by MTT assay; format: functional, cell-based
[4] = test system: Aorta; assay: Vasodilating activity in Wistar rat aortic rings assessed as reduction in KCl-induced contractions; format: functional, tissue-based
[5] = test system: A549; assay: Antiproliferative activity against human A549 cells incubated for 72 hrs by MTT assay; format: functional, cell-based; settings: A549, 72 h
[6] = test system: Aorta; assay: Vasodilating activity in Wistar rat aortic rings assessed as reduction in phenylephrine-induced contractions relative to control; format: functional
[7] = test system: Aorta; assay: Vasodilating activity in Wistar rat aortic rings assessed as reduction in KCl-induced contractions relative to control; format: functional
[8] = test system: Aorta; assay: Vasodilating activity in Wistar rat aortic rings assessed as reduction in phenylephrine-induced contractions; format: functional, tissue-based
[9] = Cytotoxicity against human MSC assessed as reduction in cell viability incubated for 72 hrs by MTT assay; format: ADME
[10] = molecular target: T1, Kinesin-like protein KIF11 (Homo sapiens) (UniProt P52732); assay: Inhibition of Eg5 in human MCF7 cells assessed as increase in monopolar spindle formation at 100 uM incubated for 24 hrs by DAPI staining based confocal microscopic method; format: cell-based
T1 sequence (whole entry): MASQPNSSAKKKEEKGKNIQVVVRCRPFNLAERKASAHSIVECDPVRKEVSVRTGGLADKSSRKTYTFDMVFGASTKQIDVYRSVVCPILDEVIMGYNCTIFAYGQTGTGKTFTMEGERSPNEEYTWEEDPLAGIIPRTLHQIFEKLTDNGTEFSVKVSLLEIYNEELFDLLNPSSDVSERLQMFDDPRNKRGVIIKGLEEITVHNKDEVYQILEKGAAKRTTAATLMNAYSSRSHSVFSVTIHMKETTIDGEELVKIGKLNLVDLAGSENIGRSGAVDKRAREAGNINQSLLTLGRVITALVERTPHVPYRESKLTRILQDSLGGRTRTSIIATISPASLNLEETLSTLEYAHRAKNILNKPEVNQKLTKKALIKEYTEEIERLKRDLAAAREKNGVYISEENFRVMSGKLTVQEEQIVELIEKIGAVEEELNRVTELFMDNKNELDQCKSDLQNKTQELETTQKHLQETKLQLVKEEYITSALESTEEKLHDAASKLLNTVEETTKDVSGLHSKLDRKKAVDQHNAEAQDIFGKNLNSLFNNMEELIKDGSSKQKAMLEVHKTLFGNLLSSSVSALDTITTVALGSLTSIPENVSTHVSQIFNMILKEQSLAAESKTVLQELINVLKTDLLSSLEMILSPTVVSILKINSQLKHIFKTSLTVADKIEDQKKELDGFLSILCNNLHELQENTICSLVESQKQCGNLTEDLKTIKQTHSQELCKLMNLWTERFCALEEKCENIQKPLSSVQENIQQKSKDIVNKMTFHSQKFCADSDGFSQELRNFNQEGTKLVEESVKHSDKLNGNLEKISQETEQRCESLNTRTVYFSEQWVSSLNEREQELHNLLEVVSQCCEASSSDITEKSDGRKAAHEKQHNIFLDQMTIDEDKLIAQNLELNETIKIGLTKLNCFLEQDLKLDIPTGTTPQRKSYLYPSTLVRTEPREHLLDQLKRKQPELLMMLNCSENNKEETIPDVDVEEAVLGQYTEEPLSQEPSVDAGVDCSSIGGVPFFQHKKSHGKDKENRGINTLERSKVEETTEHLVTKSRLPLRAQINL

[11] = molecular target: T2, Voltage-gated L-type calcium channel (Rattus norvegicus, UniProt P22002+Q02485+P27732); assay: Inhibition of L-type calcium channel in Wistar rat aortic rings assessed as reduction in (-)-Bay K8644-induced contractions at 10^-4 M measured after 20 mins; settings: 100 µM
[12] = test system: Aorta; assay: Vasodilating activity in Wistar rat aortic rings assessed as reduction in phenylephrine-induced contractions in presence of Cacl2 in calcium free Krebs medium incubated for 1 hr relative to control; format: functional; set-up: scale not given: the % may be the effect or the level left
[13] = molecular target: T2, Voltage-gated L-type calcium channel; assay: Inhibition of L-type calcium channel in Wistar rat aortic rings assessed as reduction in (-)-Bay K8644-induced contractions at 10^-5 M measured after 20 mins; settings: 10 µM

| Compound | pIC50 [1] | pIC50 [2] | pIC50 [3] | pIC50 [4] | pIC50 [5] | Emax [6] | Emax [7] | pIC50 [8] | pIC50 [9] | inhibition [10] | inhibition (INH) [11] | Activity [12] | inhibition (INH) [13] |
| --- | --- | --- | --- | --- | --- | --- | --- | --- | --- | --- | --- | --- | --- |
| CCOC(=O)C1=C(C)NC(=S)NC1c1ccc2cn[nH]c2c1 (racemic) | < 4.00 | < 4.00 | 4.20 | 4.44 | < 4.00 | 61.2% | 48.5% | 4.38 | < 4.00 | – | – | – | – |
| CCOC(=O)C1=C(C)NC(=S)NC1c1cccnc1 (racemic) | < 4.00 | < 4.00 | < 4.00 | 4.28 | < 4.00 | 80.9% | 78.4% | 4.34 | – | – | – | – | – |
| CCOC(=O)C1=C(C)NC(=S)NC1c1ccc(OC)c(O)c1 (racemic) | < 4.00 | < 4.00 | < 4.00 | 4.43 | < 4.00 | 88.4% | 77% | 4.60 | – | – | – | – | – |
| COC(=O)C1=C(C)NC(C)=C(C(=O)OC)C1c1ccccc1[N+](=O)[O-] [NIFEDIPINE] | < 4.00 | < 4.00 | 4.24 | 8.54 | < 4.00 | 75.1% | 98.7% | 7.72 | < 4.00 | – | – | – | – |
| CCOC(=O)C1=C(C)NC(=S)NC1c1ccc2c(c1)OCCO2 (racemic) | < 4.00 | < 4.00 | < 4.00 | 4.92 | < 4.00 | 83.3% | 71.7% | 5.25 | < 4.00 | Active | Active | 41.8% | – |
| CCOC(=O)C1=C(C)NC(=S)NC1c1ccc(O)c(OC)c1 (racemic) | < 4.00 | < 4.00 | < 4.00 | 4.04 | < 4.00 | 78% | 78.3% | 4.54 | – | Active | – | – | – |
| CCOC(=O)C1=C(C)NC(=S)NC1c1ccc(O)c([N+](=O)[O-])c1 (racemic) | < 4.00 | < 4.00 | < 4.00 | 4.42 | < 4.00 | 62.4% | 57.1% | 4.59 | – | – | – | – | – |
| CCOC(=O)C1=C(C)NC(=S)NC1c1cccc(O)c1 (racemic) [MONASTROL] | 5.05 | 4.14 | 5.06 | 5.92 | < 4.00 | 95.2% | 89.5% | 5.16 | – | – | Active | 81.8% | – |
| CCOC(=O)C1=C(C)N=C(S)NC1c1cccc([N+](=O)[O-])c1 (racemic) | 4.24 | 4.49 | 4.02 | 4.80 | 4.35 | 84.9% | 95.4% | 5.49 | < 4.00 | Active | Active | 18.1% | Active |
